The values that follow come from patent publication US20250179103A1, “6-OXODECAHYDROPYRROLO[1,2-A][1,5]DIAZOCINE AND 6-OXODECAHYDRO-4H-PYRROLO[2,1-D][1,5]THIAZOCINE DERIVATIVES AS STAT3 AND STAT6 MODULATORS FOR THE TREATMENT OF CANCER AND INFLAMMATORY CONDITIONS” (Recludix Pharma, Inc., priority 2022, published 2025).

The target in assay [1] is T1, Recombinant STAT6 protein (STAT6(W123-T658)) (Homo sapiens, UniProt P42226).
T1 construct: Recombinant STAT6 protein (STAT6(W123-T658))
T1 sequence (P42226 123-658): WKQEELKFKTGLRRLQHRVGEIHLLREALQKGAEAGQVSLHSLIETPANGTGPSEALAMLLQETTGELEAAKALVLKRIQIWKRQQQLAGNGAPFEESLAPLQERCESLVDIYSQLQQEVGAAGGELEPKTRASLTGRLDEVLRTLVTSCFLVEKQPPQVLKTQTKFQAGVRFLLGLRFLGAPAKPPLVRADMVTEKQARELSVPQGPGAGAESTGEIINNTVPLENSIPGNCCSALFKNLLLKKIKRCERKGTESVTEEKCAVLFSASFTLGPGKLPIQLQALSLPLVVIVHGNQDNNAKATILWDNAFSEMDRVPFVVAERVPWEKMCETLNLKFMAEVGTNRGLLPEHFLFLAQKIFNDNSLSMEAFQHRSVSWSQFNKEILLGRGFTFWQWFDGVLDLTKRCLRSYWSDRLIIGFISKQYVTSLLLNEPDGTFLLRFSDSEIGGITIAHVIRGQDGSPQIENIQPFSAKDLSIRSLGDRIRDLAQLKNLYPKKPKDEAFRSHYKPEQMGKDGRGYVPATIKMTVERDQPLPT
The assay can be described thus: STAT6 Fluorescence Polarization (FP) Assay. Conditions: STAT6(W123-T658) 250 nM, probe 5-FAM-ApYKPFQDLI-NH2 2 nM, 45-minute incubation. Type of assay: binding. In a few lines: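 Displacement of a fluorescent phosphotyrosine peptide (5-FAM-ApYKPFQDLI-NH2, 2 nM) from STAT6(W123-T658) (250 nM), 1% DMSO, pH 7.4 HEPES buffer. After 45 min at room temperature, polarization (mP) was plotted versus log compound concentration and fitted by nonlinear regression to give IC50.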
(In fluorescence polarisation assays a small probe gives low polarisation when free and higher when bound to something large.)

Assay [2] deals with T2, Recombinant STAT3 protein (STAT3(G127-I722)) (Homo sapiens, UniProt P40763).
T2 construct: Recombinant STAT3 protein (STAT3(G127-I722))
The assay can be described thus: STAT3 Fluorescence Polarization (FP) Assay. The class given is binding. The following applies: STAT3(G127-I722) 25 nM, probe 5-FAM-GpYLPQTV-NH2 2 nM, 45-minute incubation. In a few lines: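 Fluorescence polarization after a 45-min room-temperature incubation measured compound displacement of a 2 nM fluorescein-labelled phosphotyrosine peptide (5-FAM-GpYLPQTV-NH2) from 25 nM recombinant STAT3(G127-I722). Buffer was 10 mM HEPES pH 7.4 with 1% DMSO final. IC50s were fitted by nonlinear regression of mP against log concentration.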

SMILES strings stand for the structures.

T2 sequence (P40763 127-722): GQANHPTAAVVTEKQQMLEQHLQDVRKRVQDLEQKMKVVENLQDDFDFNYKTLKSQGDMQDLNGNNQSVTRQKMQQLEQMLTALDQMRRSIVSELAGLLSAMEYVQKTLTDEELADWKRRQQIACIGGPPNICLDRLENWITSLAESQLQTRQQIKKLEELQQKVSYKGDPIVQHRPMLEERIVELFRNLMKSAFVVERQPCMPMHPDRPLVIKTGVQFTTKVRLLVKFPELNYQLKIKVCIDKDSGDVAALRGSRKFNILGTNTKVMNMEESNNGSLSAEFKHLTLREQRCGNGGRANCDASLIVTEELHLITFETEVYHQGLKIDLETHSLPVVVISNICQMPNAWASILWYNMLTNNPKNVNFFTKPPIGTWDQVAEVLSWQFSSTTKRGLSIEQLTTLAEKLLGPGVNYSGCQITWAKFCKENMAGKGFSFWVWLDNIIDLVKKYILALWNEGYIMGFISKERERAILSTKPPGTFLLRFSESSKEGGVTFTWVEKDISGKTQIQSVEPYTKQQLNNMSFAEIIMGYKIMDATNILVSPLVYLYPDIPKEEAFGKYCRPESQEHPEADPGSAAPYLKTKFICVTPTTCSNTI

A word on the IC50: it is the midpoint of a concentration-inhibition curve. As to `CC(=O)N1CC[C@H]2CC[C@@H](C(=O)N3CCN(C4CC4)C(C#N)C3)N2C(=O)[C@@H](NC(=O)c2cc3cc(C(F)(F)P(=O)(O)O)ccc3s2)C1` (stereo partly drawn) [Compound 63, ((2-(((5S,8S,10aR)-3-acetyl-8-(3-cyano-4-cyclopropylpiperazine-1-carbonyl)-6-oxodecahydropyrrolo[1,2-a][1,5]diazocin-5-yl)carbamoyl)benzo[b]thiophen-5-yl)difluoromethyl)phosphonic acid], the IC50 was 0.3 to 3 µM in assay [1] and 1 to 10 µM in assay [2].

For `CC(=O)N1CC[C@H]2CC[C@@H](C(=O)Nc3ccc(-c4ccccc4)cc3[N+](=O)[O-])N2C(=O)[C@@H](NC(=O)c2cc3cc(C(F)(F)P(=O)(O)O)ccc3s2)C1` [Compound 178], the IC50 in assay [1] was 0.3 to 3 µM; in assay [2], 0.1 to 1 µM.

As to `CC(=O)N1CC[C@H]2CC[C@@H](C(=O)N(C)c3ccccc3)N2C(=O)[C@@H](NC(=O)c2ccc3ccc(P(=O)(O)O)cc3c2)C1` [Compound 114, (7-(((5S,8S,10aR)-3-acetyl-8-(methyl(phenyl)carbamoyl)-6-oxodecahydropyrrolo[1,2-a][1,5]diazocin-5-yl)carbamoyl)naphthalen-2-yl)phosphonic acid], the IC50 was over 30 µM in assay [1] and over 10 µM in assay [2].

On to `COc1ccccc1N(C)C(=O)[C@@H]1CC[C@@H]2CCN(C(C)=O)C[C@H](NC(=O)c3cc4cc(C(F)(F)P(=O)(O)O)ccc4[nH]3)C(=O)N21` [Compound 164, ((2-(((5S,8S,10aR)-3-acetyl-8-((2-methoxyphenyl)(methyl)carbamoyl)-6-oxodecahydropyrrolo[1,2-a][1,5]diazocin-5-yl)carbamoyl)-1H-indol-5-yl)difluoromethyl)phosphonic acid], for which the IC50 is 0.3 to 3 µM in assay [1] and 1 to 10 µM in assay [2].

Turning to `N#CC1CN(C(=O)C2CCC3CCNCC(NC(=O)c4cc5cc(C(F)(F)P(=O)(O)O)ccc5s4)C(=O)N32)CC1c1ccccc1` (mixture of isomers) [Compound 10, ((2-(((5S,8S,10aR)-8-((rel-trans)-3-cyano-4-phenylpyrrolidine-1-carbonyl)-6-oxodecahydropyrrolo[1,2-a][1,5]diazocin-5-yl)carbamoyl)benzo[b]thiophen-5-yl)difluoromethyl)phosphonic Acid], the values for the IC50 in assay [1] and in assay [2] were at most 0.3 µM and 1 to 10 µM, respectively.

As for `CNC(=O)[C@@H]1CC[C@@H]2CCN(C(C)=O)C[C@H](NC(=O)c3cc4cc(C(F)(F)P(=O)(O)O)ccc4[nH]3)C(=O)N21` [Compound 36, ((2-(((5S,8S,10aR)-3-acetyl-8-(methylcarbamoyl)-6-oxodecahydropyrrolo[1,2-a][1,5]diazocin-5-yl)carbamoyl)-1H-indol-5-yl)difluoromethyl)phosphonic acid], the IC50 fell in the range of 0.3 to 3 µM in assay [1] and 1 to 10 µM in assay [2].

As for `N#C[C@@H]1CN(C(=O)[C@@H]2CC[C@@H]3CCS(=O)(=O)C[C@H](NC(=O)c4cc5cc(C(F)(F)P(=O)(O)O)ccc5s4)C(=O)N32)C[C@H]1c1ccccc1` (single isomer, unassigned) [Compound 8], the IC50 in assay [1] is at most 0.3 µM; in assay [2], 0.1 to 1 µM.

As for `CNC(=O)[C@@H]1CC[C@@H]2CCN(C(=O)c3n[nH]c4ccc(C)cc34)C[C@H](NC(=O)c3ccc4ccc(C(F)(F)P(=O)(O)O)cc4c3)C(=O)N21` [Compound 237, (difluoro(7-(((5S,8S,10aR)-3-(5-methyl-1H-indazole-3-carbonyl)-8-(methylcarbamoyl)-6-oxodecahydropyrrolo[1,2-a][1,5]diazocin-5-yl)carbamoyl)naphthalen-2-yl)methyl)phosphonic acid], the IC50 is at most 0.3 µM in assay [1] and 0.1 to 1 µM in assay [2].

In the case of `CC(=O)N1CC[C@H]2CC[C@@H](C(=O)N3CCC4(C3)C(=O)Nc3ccccc34)N2C(=O)[C@@H](NC(=O)c2cc3cc(C(F)(F)P(=O)(O)O)ccc3s2)C1` (stereo partly drawn) [Compound 76, ((2-(((5S,8S,10aR)-3-acetyl-6-oxo-8-(2-oxospiro[indoline-3,3′-pyrrolidine]-1′-carbonyl)decahydropyrrolo[1,2-a][1,5]diazocin-5-yl)carbamoyl)benzo[b]thiophen-5-yl)difluoromethyl)phosphonic acid], the IC50 in assay [1] lay in the range of 0.3 to 3 µM; in assay [2], 0.1 to 1 µM.

Take `CC(=O)N1CC[C@H]2CC[C@@H](C(=O)N(C)c3ccccc3)N2C(=O)[C@@H](NC(=O)c2cc3cc(C(F)P(=O)(O)O)ccc3s2)C1` (stereo partly drawn) [Compound 22, ((2-(((5S,8S,10aR)-3-acetyl-8-(methyl(phenyl)carbamoyl)-6-oxodecahydropyrrolo[1,2-a][1,5]diazocin-5-yl)carbamoyl)benzo[b]thiophen-5-yl)fluoromethyl)phosphonic acid]: the IC50 was 0.3 to 3 µM in assay [1] and over 10 µM in assay [2].

Turning to `Cc1ccc2onc(C(=O)N3CC[C@H]4CC[C@@H](C(=O)N5CCOCC5)N4C(=O)[C@@H](NC(=O)c4cc(C#N)c5ccc(CP(=O)(O)O)cc5c4)C3)c2c1` [Compound 378, ((5-cyano-7-(((5S,8S, 10aR)-3-(5-methylbenzo[d]isoxazole-3-carbonyl)-8-(morpholine-4-carbonyl)-6-oxodecahydropyrrolo [1,2-a][1,5]diazocin-5-yl)carbamoyl)naphthalen-2-yl)methyl) phosphonic acid], the IC50 in assay [1] is 0.3 to 3 µM; in assay [2] it was over 10 µM.

With `CCC(C)(C)c1ccc(N(C)C(=O)[C@@H]2CC[C@@H]3CCN(C(C)=O)C[C@H](NC(=O)c4cc5cc(C(F)(F)P(=O)(O)O)ccc5s4)C(=O)N32)cc1` [Compound 159, ((2-(((5S,8S,10aR)-3-acetyl-8-(methyl(4-(tert-pentyl)phenyl)carbamoyl)-6-oxodecahydropyrrolo[1,2-a][1,5]diazocin-5-yl)carbamoyl)benzo[b]thiophen-5-yl)difluoromethyl)phosphonic acid], the figures for the IC50 in assay [1] and in assay [2] were 0.3 to 3 µM and 1 to 10 µM, respectively.

For `CC(=O)N1CC[C@H]2CC[C@@H](C(=O)N[C@H]3CCC[C@H]3N)N2C(=O)[C@@H](NC(=O)c2cc3cc(C(F)(F)P(=O)(O)O)ccc3[nH]2)C1` [Compound 31, ((2-(((5S,8S,10aR)-3-acetyl-8-(((1S,2R)-2-aminocyclopentyl)carbamoyl)-6-oxodecahydropyrrolo[1,2-a][1,5]diazocin-5-yl)carbamoyl)-1H-indol-5-yl)difluoromethyl)phosphonic acid], the values for the IC50 in assay [1] and in assay [2] were 0.3 to 3 µM and 1 to 10 µM, respectively.

As for `CC(=O)N1CC[C@H]2CC[C@@H](C(=O)N(C)c3ccc(C(C)(C)C#N)cc3)N2C(=O)[C@@H](NC(=O)c2cc3cc(C(F)(F)P(=O)(O)O)ccc3s2)C1` [Compound 2, ((2-(((5S,8S,10aR)-3-acetyl-8-((4-(2-cyanopropan-2-yl)phenyl)(methyl)carbamoyl)-6-oxodecahydropyrrolo[1,2-a][1,5]diazocin-5-yl)carbamoyl)benzo[b]thiophen-5-yl)difluoromethyl)phosphonic Acid], the IC50 in assay [1] is 0.3 to 3 µM; in assay [2], over 10 µM.

Regarding `N#C[C@H]1CN(C(=O)[C@@H]2CC[C@@H]3CN(C4CCC4)CC[C@H](NC(=O)c4ccc5ccc(C(F)(F)P(=O)(O)O)cc5c4)C(=O)N32)C[C@@H]1c1ccccc1` (relative stereo) [Compound 228, ((7-(((5S,8S,10aR)-8-((rel-trans)-3-cyano-4-phenylpyrrolidine-1-carbonyl)-2-cyclobutyl-6-oxodecahydropyrrolo[1,2-a][1,4]diazocin-5-yl)carbamoyl)naphthalen-2-yl)difluoromethyl)phosphonic acid], the values for the IC50 in assay [1] and in assay [2] were at most 0.3 µM and 1 to 10 µM, respectively.

As to `CC(=O)N1CC[C@H]2CC[C@@H](C(=O)N(C)c3ccc(Cl)cc3)N2C(=O)[C@@H](NC(=O)c2cc3cc(C(F)(F)P(=O)(O)O)ccc3s2)C1` [Compound 187, ((2-(((5S,8S,10aR)-3-acetyl-8-((4-chlorophenyl)(methyl)carbamoyl)-6-oxodecahydropyrrolo[1,2-a][1,5]diazocin-5-yl)carbamoyl)benzo[b]thiophen-5-yl)difluoromethyl)phosphonic acid], the IC50 in assay [1] lay within 0.3 to 3 µM; in assay [2], 1 to 10 µM.

Consider `N#CC1CN(C(=O)C2CCC3CCS(=N)(=O)CC(NC(=O)c4cc5cc(C(F)(F)P(=O)(O)O)ccc5s4)C(=O)N32)CC1c1ccccc1` (single isomer, unassigned) [Compound 7], for which the IC50 in assay [1] is 0.3 to 3 µM; in assay [2] it was 1 to 10 µM.
